Experimental data from PubChem BioAssay (NCI).
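1) Cells in 96-well plates. 2) Compound, 48 h, 5 concentrations. 3) Linear interpolation between surrounding doses. 4) Unreached endpoint = highest concentration. GI50 = concentration required for 50% inhibition of growth. Definition used: TGI = concentration required for complete inhibition of growth.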

How the values were obtained:
Assay in all cases: NCI tumour cell line growth inhibition, 48 h
DMS 114 small cell lung = tested on: DMS 114 small cell lung
SNB-78 CNS = tested on: SNB-78 CNS
M19-MEL melanoma = tested on: M19-MEL melanoma
LOX IMVI melanoma = tested on: LOX IMVI melanoma
DLD-1 colon = tested on: DLD-1 colon
HS 578T breast = tested on: HS 578T breast
BT-549 breast = tested on: BT-549 breast
DU-145 prostate = tested on: DU-145 prostate
MDA-MB-231 breast = tested on: MDA-MB-231 breast
KM20L2 colon = tested on: KM20L2 colon
RXF-631 renal = tested on: RXF-631 renal

SMILES	TGI (DMS 114 small cell lung) [µM]	TGI (SNB-78 CNS) [µM]	TGI (M19-MEL melanoma) [µM]	TGI (LOX IMVI melanoma) [µM]	TGI (DLD-1 colon) [µM]	TGI (HS 578T breast) [µM]	TGI (BT-549 breast) [µM]	TGI (DU-145 prostate) [µM]	TGI (MDA-MB-231 breast) [µM]	TGI (KM20L2 colon) [µM]	TGI (RXF-631 renal) [µM]	other results
O=C(Cl)c1cc([N+](=O)[O-])cc([N+](=O)[O-])c1	> 100	> 100	> 100	> 100	> 100							
CN(C)CCCN1c2ccc3ccccc3c2Sc2cccc(Cl)c21						21.7	42.7	14.8	8.07			
CC(C)OP(=O)(OC(C)C)c1ncn(-c2ccc([N+](=O)[O-])cc2)n1	> 100		> 100		> 100					> 100		
COc1nc(NC2OCC(OC(C)=O)C(OC(C)=O)C2OC(C)=O)c(N=C(C)C(C)=O)c(=O)n1C (centres undefined)	> 100	> 100		> 100	> 100					> 100	> 100	
Nc1cc(N)c2nc(-c3ccccc3)c(Sc3ccc(F)cc3)nc2c1				41.2		62	44.1	37.7	38			GI50 (HS 578T breast): 27 µM; GI50 (BT-549 breast): 22 µM; GI50 (DU-145 prostate): 19.8 µM; GI50 (LOX IMVI melanoma): 22.7 µM; GI50 (MDA-MB-231 breast): 17.5 µM
COc1cccc(C(=O)C(O)c2cccc(OC)c2OC)c1OC (centres undefined)				> 100		> 100	> 100	> 100	> 100			
O=C(CCc1nnc2s/c(=C\c3ccc(Cl)cc3Cl)c(=O)n12)Nc1cc(Cl)c(Cl)cc1Cl	> 100	> 100	> 100		> 100					> 100	> 100	GI50 (DMS 114 small cell lung): > 100 µM; GI50 (M19-MEL melanoma): > 100 µM; GI50 (DLD-1 colon): > 100 µM; GI50 (KM20L2 colon): > 100 µM
CN1C(=N\S(=O)(=O)c2ccc(Cl)cc2)/C(=N/N=P(c2ccccc2)(c2ccccc2)c2ccccc2)c2ccccc21		> 100	> 100		> 100					> 100	> 100	
